In brackets after ≈: the same amount, converted by molar mass.
How the values were obtained:
Candida albicans [1] = experiment: In vitro antifungal activity against Candida albicans (CA 10231); type: functional
Candida albicans [2] = experiment: In vitro antifungal activity against Candida albicans (CA 442); Weak; type: functional, organism-based
Homo sapiens = species on record: Homo sapiens; experiment: Inhibitory activity against human concanavalin-A proliferation assay; type: functional
Candida albicans [3] = experiment: In vitro for antifungal activity against Candida albicans (CA 579a); type: functional
Aspergillus niger = experiment: In vitro antifungal activity at a minimum inhibitory concentration (~100 ug/mL) against Aspergillus niger; Not affected; type: functional; conditions: Aspergillus niger; read-out: MIC
Candida albicans [4] = experiment: In vitro antifungal activity against Candida albicans (CA 62376); Weak; type: functional, organism-based
Candida albicans [5] = experiment: In vitro antifungal activity against […] (CA 34140); Not affected.; type: functional
Candida tropicalis = experiment: In vitro antifungal activity against Candida tropicalis (CT 750); type: functional
Nakaseomyces glabratus = experiment: In vitro antifungal activity against Torulopsis glabrata (TG 15545); type: functional
Candida albicans [6] = experiment: In vitro antifungal activity against Candida albicans (CA 38247); Weak; type: functional, organism-based
Pichia kudriavzevii = experiment: In vitro antifungal activity against Candida krusei (CK 28838); type: functional

Structure (SMILES) | MIC (Candida albicans [1]) [µg/mL] | MIC (Candida albicans [2]) | IC50 (Homo sapiens) [nM] | MIC (Candida albicans [3]) [µg/mL] | MIC (Aspergillus niger) [µg/mL] | MIC (Candida albicans [4]) | MIC (Candida albicans [5]) [µg/mL] | MIC (Candida tropicalis) [µg/mL] | MIC (Nakaseomyces glabratus) [µg/mL] | MIC (Candida albicans [6]) | MIC (Pichia kudriavzevii) [µg/mL]
CO[C@@H]1C[C@H](C[C@@H](C)[C@@H]2CC(=O)[C@H](C)/C=C(\C)[C@@H](O)[C@@H](OC)C(=O)[C@H](C)C[C@H](C)/C=C/C=C/C=C(\C)[C@@H](N(O)C(=O)N(C)C)C[C@@H]3CC[C@@H](C)[C@@](O)(O3)C(=O)C(=O)N3CCCC[C@H]3C(=O)O2)CC[C@H]1O | 100 (≈ 101 µM) | Weak | 2030 | 100 (≈ 101 µM) | ~100 (≈ 101 µM) | Weak | ~100 (≈ 101 µM) | 50 (≈ 50.7 µM) | 3.12 (≈ 3.16 µM) | Weak | –
COC(=O)N(O)[C@@H]1C[C@@H]2CC[C@@H](C)[C@@](O)(O2)C(=O)C(=O)N2CCCC[C@H]2C(=O)O[C@H]([C@H](C)C[C@@H]2CC[C@@H](O)[C@H](OC)C2)CC(=O)[C@H](C)/C=C(\C)[C@@H](O)[C@@H](OC)C(=O)[C@H](C)C[C@H](C)/C=C/C=C/C=C/1C | 3.12 (≈ 3.21 µM) | Weak | 16 | 6.25 (≈ 6.42 µM) | ~100 (≈ 103 µM) | Weak | ~100 (≈ 103 µM) | 3.12 (≈ 3.21 µM) | 0.78 (≈ 0.801 µM) | Weak | 0.39 (≈ 0.401 µM)
CO[C@@H]1C[C@H](C[C@@H](C)[C@@H]2CC(=O)[C@H](C)/C=C(\C)[C@@H](O)[C@@H](OC)C(=O)[C@H](C)C[C@H](C)/C=C/C=C/C=C(\C)[C@H](c3ccc(C)s3)C[C@@H]3CC[C@@H](C)[C@@](O)(O3)C(=O)C(=O)N3CCCC[C@H]3C(=O)O2)CC[C@H]1O | 3.12 (≈ 3.18 µM) | Weak | 221 | 12.5 (≈ 12.8 µM) | ~100 (≈ 102 µM) | Weak | ~100 (≈ 102 µM) | 1.56 (≈ 1.59 µM) | 0.78 (≈ 0.796 µM) | Weak | 1.56 (≈ 1.59 µM)
CO[C@@H]1C[C@H](C[C@@H](C)[C@@H]2CC(=O)[C@H](C)/C=C(\C)[C@@H](O)[C@@H](OC)C(=O)[C@H](C)C[C@H](C)/C=C/C=C/C=C(\C)[C@H](N(O)C(=O)OCC(C)C)C[C@@H]3CC[C@@H](C)[C@@](O)(O3)C(=O)C(=O)N3CCCC[C@H]3C(=O)O2)CC[C@H]1O | 1.56 (≈ 1.54 µM) | Weak | 196 | 3.12 (≈ 3.07 µM) | ~100 (≈ 98.5 µM) | Weak | ~100 (≈ 98.5 µM) | 1.56 (≈ 1.54 µM) | 0.78 (≈ 0.768 µM) | Weak | 0.78 (≈ 0.768 µM)
CO[C@H]1C[C@@H]2CC[C@@H](C)[C@@](O)(O2)C(=O)C(=O)N2CCCC[C@H]2C(=O)O[C@H]([C@H](C)C[C@@H]2CC[C@@H](OC(=O)N(C)C)[C@H](OC)C2)CC(=O)[C@H](C)/C=C(\C)[C@@H](O)[C@@H](OC)C(=O)[C@H](C)C[C@H](C)CCCC/C=C/1C | 50 (≈ 50.5 µM) | – | 485 | 50 (≈ 50.5 µM) | – | – | – | > 100 | – | – | 6.25 (≈ 6.32 µM)
CO[C@@H]1C[C@H](C[C@@H](C)[C@@H]2CC(=O)[C@H](C)/C=C(\C)[C@@H](O)[C@@H](OC)C(=O)[C@H](C)C[C@H](C)/C=C/C=C/C=C(\C)[C@H](N(O)C(=O)Oc3ccccc3)C[C@@H]3CC[C@@H](C)[C@@](O)(O3)C(=O)C(=O)N3CCCC[C@H]3C(=O)O2)CC[C@H]1O | 1.56 (≈ 1.51 µM) | Weak | 170 | 3.12 (≈ 3.01 µM) | ~100 (≈ 96.6 µM) | Weak | ~100 (≈ 96.6 µM) | 0.78 (≈ 0.753 µM) | 0.78 (≈ 0.753 µM) | Weak | 0.78 (≈ 0.753 µM)
CO[C@@H]1C[C@H](C[C@@H](C)[C@@H]2CC(=O)[C@H](C)/C=C(\C)[C@@H](O)[C@@H](OC)C(=O)[C@H](C)C[C@H](C)/C=C/C=C/C=C(\C)[C@@H](N(O)C(=O)N3CCOCC3)C[C@@H]3CC[C@@H](C)[C@@](O)(O3)C(=O)C(=O)N3CCCC[C@H]3C(=O)O2)CC[C@H]1O | 25 (≈ 24.3 µM) | Weak | 1620 | 50 (≈ 48.6 µM) | ~100 (≈ 97.2 µM) | Weak | ~100 (≈ 97.2 µM) | 25 (≈ 24.3 µM) | 3.12 (≈ 3.03 µM) | Weak | 6.25 (≈ 6.08 µM)
CO[C@@H]1C[C@H](C[C@@H](C)[C@@H]2CC(=O)[C@H](C)/C=C(\C)[C@@H](O)[C@@H](OC)C(=O)[C@H](C)C[C@H](C)/C=C/C=C/C=C(\C)[C@@H](N(O)C(=O)OC(C)C)C[C@@H]3CC[C@@H](C)[C@@](O)(O3)C(=O)C(=O)N3CCCC[C@H]3C(=O)O2)CC[C@H]1O | 6.25 (≈ 6.24 µM) | Weak | 820 | 12.5 (≈ 12.5 µM) | ~100 (≈ 99.9 µM) | Weak | ~100 (≈ 99.9 µM) | 25 (≈ 25 µM) | 0.78 (≈ 0.779 µM) | Weak | 0.78 (≈ 0.779 µM)
